The values below come from ChEMBL document CHEMBL1201862, “PubChem BioAssay data set” (2004).

Test systems include ACHN; HL-60; HOP-62; HOP-92; HT-29; Hs-578T; MDA-MB-231; MDA-MB-435; MDA-N; MOLT-4; OVCAR-3; OVCAR-8; RPMI-8226; SF-268; SF-539; SK-MEL-5; SR; TK-10; UACC-257; SK-OV-3.
What all share (test): NCI anticancer screen, dose series, 48 h

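Where inhibition never reached the appropriate level, the endpoint shown equals the highest concentration tested. Otherwise, values were interpolated linearly from a five-concentration, 48-hour dose response in 96-well plates. GI50: concentration for 50% inhibition of growth.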 The source made the active and inactive calls. Rule as the data show it: active = GI50 up to about 1.1 µM and inactive = higher.

In the case of `O=C(O)CCC(NC(=O)c1ccc(Nc2nc3ccc(C(F)(F)F)cc3nc2C(=O)O)cc1)C(=O)O` (configuration not stated), the GI50 with ACHN, in the assay with HL-60, in the assay on HOP-62, in the assay on HOP-92, with HT-29 and in the assay on Hs-578T was > 100 µM (inactive) in each case. For the same compound, the GI50 in the assay on MDA-MB-231 is > 100 µM (inactive); with MDA-MB-435, > 100 µM (inactive); in the assay on MDA-N it was > 100 µM (inactive); in the assay with MOLT-4, > 100 µM (inactive); in the assay with OVCAR-3 it was 69.8 µM (inactive); in the assay with OVCAR-8, > 100 µM (inactive). Also, the GI50 in the assay on RPMI-8226, with SF-268, in the assay on SF-539, with SK-MEL-5, with SR and in the assay with TK-10 was > 100 µM (inactive) throughout. Also, the GI50 in the assay with UACC-257 is > 100 µM (inactive).
As for `Nc1ccn(C2CC(O)C(COP(=O)(S)OC3CC(n4ccc(N)nc4=O)OC3CO)O2)c(=O)n1` (configuration not stated), the GI50 in the assay with ACHN, in the assay on HL-60, in the assay on HOP-62, in the assay on HOP-92, in the assay with HT-29 and in the assay on Hs-578T was > 100 µM (inactive) throughout. For the same compound, the GI50 is > 100 µM (inactive) with MDA-MB-231; > 100 µM (inactive) in the assay on MDA-MB-435; 4.93 µM (inactive) in the assay on MDA-N; > 100 µM (inactive) in the assay on MOLT-4; > 100 µM (inactive) in the assay on OVCAR-3; > 100 µM (inactive) in the assay on OVCAR-8. Besides, the GI50 in the assay on RPMI-8226, in the assay on SF-268, with SF-539, in the assay on SK-MEL-5, in the assay with SR and in the assay on TK-10 was > 100 µM (inactive) each time. Also, the GI50 in the assay with UACC-257 is > 100 µM (inactive).
For `CCOc1cc(C2CC(c3ccc(NS(=O)(=O)c4cc([N+](=O)[O-])ccc4C)cc3)=NN2)ccc1O` (configuration not stated), the GI50 in the assay with ACHN was 23.7 µM (inactive); with HL-60 it was 15.5 µM (inactive); in the assay with HOP-92, 45 µM (inactive); in the assay with HT-29, 26.8 µM (inactive); in the assay with Hs-578T, 65 µM (inactive); with MDA-MB-231, 25.5 µM (inactive). The GI50 in the assay with MDA-MB-435 is 28.1 µM (inactive); in the assay with MDA-N, 33.2 µM (inactive); in the assay with MOLT-4, 17.5 µM (inactive); in the assay with OVCAR-3, 15.3 µM (inactive); in the assay with OVCAR-8, 44.5 µM (inactive); in the assay on RPMI-8226 it was 24.6 µM (inactive). In addition, the GI50 was 45.5 µM (inactive) with SF-268, 45.7 µM (inactive) with SF-539, 19.2 µM (inactive) with SK-MEL-5 and 22.4 µM (inactive) in the assay with SR.
As to `O=C1N(C2CCCCC2)C(=O)N1C1CCCCC1`, the GI50 in the assay on ACHN was 0.0562 µM (active); in the assay on HL-60, < 0.01 µM (active); in the assay on HOP-62, 0.425 µM (active); with HOP-92 it was 0.149 µM (active); in the assay with HT-29, 0.701 µM (active); in the assay on Hs-578T it was 0.0409 µM (active). For the same compound, the GI50 in the assay on MDA-MB-231 was 1.33 µM (inactive); with MDA-MB-435, 2.08 µM (inactive); with MDA-N it was 3.97 µM (inactive); in the assay on MOLT-4 it was 0.0132 µM (active); in the assay with OVCAR-3, 1.87 µM (inactive); in the assay on OVCAR-8, 0.0929 µM (active). The GI50 is 0.75 µM (active) with SF-268; 1.22 µM (inactive) in the assay on SF-539; 0.439 µM (active) with SK-MEL-5; 5.15 µM (inactive) in the assay with SK-OV-3; 0.232 µM (active) with SR; 2.34 µM (inactive) in the assay on TK-10. In the assay with UACC-257, the GI50 is 0.679 µM (active).
As to `C=C1C[C@]23CC[C@@H]4C(CO)(CO)CC(=O)C[C@]4(C)[C@@H]2CC[C@H]1C3`, the GI50 in the assay with ACHN, in the assay on HL-60, in the assay with HOP-62, with HOP-92, in the assay on HT-29 and in the assay on Hs-578T was > 100 µM (inactive) throughout. The GI50 in the assay with MDA-MB-231, in the assay with MDA-MB-435, in the assay with MDA-N, with MOLT-4, in the assay on OVCAR-3 and in the assay with OVCAR-8 was > 100 µM (inactive) throughout. Further, the GI50 in the assay on RPMI-8226, in the assay on SF-268, in the assay with SF-539, in the assay on SK-OV-3, in the assay on SR and with TK-10 was > 100 µM (inactive) throughout. Besides, in the assay on UACC-257, the GI50 was > 100 µM (inactive).
In the case of `C=C1c2nc3ccccc3n2C=C(c2ccc(OC)cc2)N1c1ccc(OCCN2CCOCC2)cc1`, the GI50 in the assay on ACHN was 46.9 µM (inactive); in the assay with HL-60, 4.31 µM (inactive); in the assay on HOP-62 it was > 100 µM (inactive); with HOP-92, > 40.9 µM (inactive); in the assay with HT-29 it was 6.24 µM (inactive); in the assay with Hs-578T it was 4.7 µM (inactive). Besides, the GI50 in the assay on MDA-MB-231 is > 86.1 µM (inactive); in the assay on MDA-MB-435, 24.3 µM (inactive); in the assay on MDA-N, > 75.2 µM (inactive); in the assay with MOLT-4, 3.75 µM (inactive); in the assay on OVCAR-3, > 100 µM (inactive); in the assay with OVCAR-8, 6.03 µM (inactive). Also, the GI50 in the assay with RPMI-8226 is 1.91 µM (inactive); in the assay with SF-539 it was > 100 µM (inactive); in the assay with SK-MEL-5, 8.45 µM (inactive); in the assay on SK-OV-3, > 100 µM (inactive); in the assay with SR, 4.41 µM (inactive); with TK-10 it was 18.1 µM (inactive). Also, in the assay with UACC-257, the GI50 is 7.13 µM (inactive).
In the case of `CCOP(=O)(OCC)C(Cc1cn(S(=O)(=O)c2ccc(C)cc2)cn1)C(=O)O` (configuration not stated), the GI50 with ACHN, with HL-60, with HOP-62, with HOP-92, with HT-29 and with Hs-578T was > 100 µM (inactive) each time. Besides, the GI50 in the assay with MDA-MB-231, with MDA-MB-435, in the assay with MDA-N, in the assay on MOLT-4, in the assay with OVCAR-3 and in the assay with OVCAR-8 was > 100 µM (inactive) each time. The GI50 with RPMI-8226, in the assay on SF-268, with SF-539, with SK-MEL-5, in the assay on SK-OV-3 and in the assay on SR was > 100 µM (inactive) throughout. In addition, the GI50 in the assay with TK-10 is > 100 µM (inactive).
Take `Cc1cn([C@H]2[C@@H](CO)C[C@H]2O)c(=O)[nH]c1=O`: the GI50 in the assay with ACHN, in the assay with HL-60, in the assay with HOP-62, with HOP-92, in the assay with HT-29 and in the assay on Hs-578T was > 100 µM (inactive) throughout. For the same compound, the GI50 with MDA-MB-231, with MDA-MB-435, in the assay on MDA-N, in the assay on MOLT-4, in the assay with OVCAR-3 and in the assay on OVCAR-8 was > 100 µM (inactive) each time. For the same compound, the GI50 in the assay on RPMI-8226, in the assay on SF-268, with SF-539, in the assay with SK-MEL-5, in the assay with SR and with TK-10 was > 100 µM (inactive) in each case. The GI50 with UACC-257 was 50.4 µM (inactive).
Turning to `O=C1/C(=C\c2ccc(Br)cc2)CCCc2ccccc21`, the GI50 in the assay on ACHN is 16.9 µM (inactive); in the assay on HL-60, 14.2 µM (inactive); in the assay with HOP-62, 46.5 µM (inactive); in the assay with HOP-92, 19.1 µM (inactive); with HT-29, 15 µM (inactive); in the assay on Hs-578T, 17.3 µM (inactive). In addition, the GI50 was 18.5 µM (inactive) with MDA-MB-231; 19.2 µM (inactive) in the assay on MDA-MB-435; 17.4 µM (inactive) with MDA-N; 18.1 µM (inactive) with MOLT-4; 20.8 µM (inactive) with OVCAR-3; 15 µM (inactive) with OVCAR-8. Besides, the GI50 is 17.1 µM (inactive) with RPMI-8226; 16.9 µM (inactive) in the assay on SF-268; 15.5 µM (inactive) with SF-539; 35.6 µM (inactive) with SK-OV-3; 23 µM (inactive) in the assay on SR; 18.7 µM (inactive) in the assay on TK-10. For the same compound, in the assay with UACC-257, the GI50 is 19.5 µM (inactive).
Turning to `CC(=O)NC1=C(C)C(=O)c2c(nc3n2CC[C@H]3OC(C)=O)C1=O`, the GI50 with ACHN is 2.78 µM (inactive); in the assay on HL-60 it was 0.834 µM (active); in the assay with HOP-62 it was 10.8 µM (inactive); in the assay on HOP-92, 0.416 µM (active); with HT-29 it was 2.47 µM (inactive); in the assay with Hs-578T it was 3.21 µM (inactive). Besides, the GI50 in the assay on MDA-MB-231 was 1.37 µM (inactive); with MDA-MB-435, 0.774 µM (active); in the assay on MDA-N it was 0.628 µM (active); in the assay on MOLT-4, 0.243 µM (active); in the assay on OVCAR-3, 0.0982 µM (active); with OVCAR-8 it was 1.55 µM (inactive). Also, the GI50 with RPMI-8226 is 1.36 µM (inactive); with SF-268, 2.87 µM (inactive); in the assay with SF-539 it was 2.38 µM (inactive); in the assay with SK-MEL-5, 3.09 µM (inactive); in the assay on SR it was 0.361 µM (active); in the assay on TK-10, 8.13 µM (inactive). The GI50 in the assay on UACC-257 was 1.01 µM (active).
